Results published in patent publication US9801960B2, “Probe for a biological specimen and labelling method and screening method using the probe” (CANON KABUSHIKI KAISHA, priority 2008, dated 2017).

Legend:
Zebrafish juveniles = test: In vivo labelling of Zebrafish juveniles with probe for biological specimen; set-up: key to Staining property: +++: stained; −: no stained; key to Fluorescence sensitivity: +++: strongly observed; ++: moderately observed; +: weakly observed; −: no stained; settings: 1 hour; for Site(s) to be labelled: 10 ng/mL in water, stereoscopic microscope; for Fluorescence sensitivity / Staining property: 10 ng/mL; for Fluorescence sensitivity: fluorescence intensity visually evaluated; for Staining property: visually evaluated
Protocol: Five juveniles of Zebrafish were put into one well of a well plate together with rearing water. After rearing water had been discharged, 1 mL of distilled water was added to the well, and a solution of a staining compound (1) in DMSO was further added thereto so as to achieve a concentration of 10 ng/mL, followed by gentle stirring (pipetting). Further, Egg Water was prepared by dissolving artificial seawater SEALIFE (manufactured by Marinetech Co., Ltd.) in distilled water at a concentration of 60 mg/L. After the whole had been left to stand for 1 hour, distilled water in the well was discharged and replaced by 1 mL of fresh Egg Water. In addition, such an operation that Egg Water was discharged and replaced by 1 mL of fresh Egg Water was repeated twice. One of the juveniles was taken out from the well onto a dish, supplemented with 100 μL of a 3% methylcellulose aqueous solution to fix the movement of the juvenile, and photographed with a stereoscopic microscope (MZ10F: manufactured by Leica Microsystems K.K.).
The same operation as that in Example 1 was performed except that the staining compound (1) used in Example 1 was changed to any one of the staining compounds described in Table 1.
The same operation as that in Example 1 was performed except that the staining compound (1) used in Example 1 was changed to any one of indocyanine green (ICG) and fluorescein.
The staining property of each of the staining compounds of Labelled Examples 1 to 78 and Labelled Comparative Examples 1 and 2 was visually evaluated (+++: stained and −: no stained).
The fluorescence intensity of each of the staining compounds of Labelled Examples 1 to 78 and Labelled Comparative Examples 1 and 2 was visually evaluated (+++: strongly observed, ++: moderately observed, +: weakly observed, and −: no stained).

[1] = Storage stability of staining compound solution in DMSO; format: physicochemical; settings: 10 ng/mL in DMSO, closed glass container, normal temperature, 1 month; rate of change of absorbance and fluorescence intensity
Protocol: A 10 ng/mL solution of each of the staining compounds of Labelled Examples 1 to 78 and Labelled Comparative Examples 1 and 2 in DMSO was prepared, charged into a well-closed container made of glass, and left to stand still at normal temperature for 1 month. The absorbance and the fluorescence intensity at the time of the start of a storage stability test were measured at a given wavelength, and their rates of change were examined (+++: rates of change of the absorbance and the fluorescence intensity are less than 5%, and thus, the storage stability is highly excellent; ++: rates of change of the absorbance and fluorescence intensity are 5 to 15%, and thus, the storage stability is excellent; and −: rates of change of the absorbance and fluorescence intensity are more than 15%, and thus, the storage stability is poor).

[2] = Excitation and fluorescence emission wavelength measurement; format: physicochemical; set-up: Stokes shift (λem − λex): unit not given here; settings: aqueous solution: 10 mg/mL solution in DMSO diluted 500-fold with purified water
Protocol: It should be noted that the excitation wavelength and the fluorescence emission wavelength of the staining compound were determined by measuring an aqueous solution, which had been obtained by diluting 500-fold a 10 mg/mL solution of the staining compound in DMSO with purified water, with a fluorescence spectrophotometer FL 4500 manufactured by Hitachi High-Technologies Corporation.

Row | Compound | Site(s) to be labelled (Zebrafish juveniles) | Fluorescence sensitivity (Zebrafish juveniles) | Staining property (Zebrafish juveniles) | Storage stability [1] | Excitation wavelength λex [2] [nm] | Fluorescence emission wavelength λem [2] [nm] | Stokes shift (λem − λex) [2]
1 | O=C(O)Cn1c(=O)/c(=C\c2ccc3c(c2)C2CCCC2N3c2ccccc2)s/c1=C1/SC(=S)N(Cc2ccccc2)C1=O (stereo not drawn) [Dye 66] | blood vessel, nose, and gastrointestinal tract | ++ | +++ | ++ (rates of change of the absorbance and fluorescence intensity are 5 to 15%, and thus, the storage stability is excellent) | 586 | 661 | 75
2 | COc1ccc(N2c3ccc(/C=c4/s/c(=C5/SC(=S)N(Cc6ccccc6)C5=O)n(CC(=O)O)c4=O)cc3C3CCCC32)cc1 (stereo not drawn) [Dye 67] | blood vessel | +++ | +++ | +++ (rates of change of the absorbance and the fluorescence intensity are less than 5%, and thus, the storage stability is highly excellent) | 568 | 712 | 144
3 | CCN1C(=O)/C(=c2\s/c(=C/c3ccc4c(c3)C3CCCC3N4c3ccc(OC)cc3)c(=O)n2CC)SC1=S (stereo not drawn) [Dye 68] | gastrointestinal tract | +++ | +++ | +++ (rates of change of the absorbance and the fluorescence intensity are less than 5%, and thus, the storage stability is highly excellent) | 602 | 667 | 65
4 | C=CCN1C(=O)/C(=c2\s/c(=C/c3ccc4c(c3)C3CCCC3N4c3ccc(C=C(c4ccccc4)c4ccccc4)cc3)c(=O)n2CC(=O)OCC)SC1=S (stereo not drawn) [Dye 69] | gastrointestinal tract | +++ | +++ | +++ (rates of change of the absorbance and the fluorescence intensity are less than 5%, and thus, the storage stability is highly excellent) | 600 | 656 | 56
5 | COc1ccc(N2c3ccc(/C=C/c4sc5ccccc5[n+]4CCC(=O)O)cc3C3CCCC32)cc1 (stereo not drawn) [Dye 72] | gallbladder and gastrointestinal tract | +++ | +++ | +++ (rates of change of the absorbance and the fluorescence intensity are less than 5%, and thus, the storage stability is highly excellent) | 583 | 668 | 85
6 | O=C(O)CC[n+]1c(/C=C/c2ccc3c(c2)C2CCCC2N3c2ccc(C=C(c3ccccc3)c3ccccc3)cc2)sc2ccccc21 (stereo not drawn) [Dye 73] | nose | +++ | +++ | +++ (rates of change of the absorbance and the fluorescence intensity are less than 5%, and thus, the storage stability is highly excellent) | 598 | 726 | 128
7 | COc1ccc(N2c3ccc(/C=C/C4=[N+](CCC(=O)O)c5ccccc5C4(C)C)cc3C3CCCC32)cc1 (stereo not drawn) [Dye 76] | gastrointestinal tract and lower abdomen | +++ | +++ | +++ (rates of change of the absorbance and the fluorescence intensity are less than 5%, and thus, the storage stability is highly excellent) | 592 | 671 | 79
8 | O=C(O)CN1C(=O)/C(=C\c2ccc3c(c2)C2CCCC2N3c2ccc(C=C(c3ccccc3)c3ccccc3)cc2)SC1=S (stereo not drawn) [Dye 88] | nose | +++ | +++ | +++ (rates of change of the absorbance and the fluorescence intensity are less than 5%, and thus, the storage stability is highly excellent) | 535 | 655 | 120
9 | CCN1C(=O)/C(=c2/s/c(=C/c3ccc4c(c3)C3CCCC3N4c3ccc(C=C(c4ccccc4)c4ccccc4)cc3)c(=O)n2CC(=O)O)SC1=S (stereo not drawn) [Dye 102] | gastrointestinal tract | +++ | +++ | +++ (rates of change of the absorbance and the fluorescence intensity are less than 5%, and thus, the storage stability is highly excellent) | 551 | 673 | 122
10 | CCN1C(=O)/C(=c2\s/c(=C/c3ccc4c(c3)C3CCCC3N4c3ccc(C=C(c4ccccc4)c4ccccc4)cc3)c(=O)n2CC(=O)O)SC1=S (stereo not drawn) [Dye 103] | gastrointestinal tract | +++ | +++ | +++ (rates of change of the absorbance and the fluorescence intensity are less than 5%, and thus, the storage stability is highly excellent) | 567 | 702 | 135
11 | N#C/C(=C\c1ccc2c(c1)C1CCCC1N2c1ccccc1)C(=O)O (stereo not drawn) [Dye 105] | liver and gastrointestinal tract | ++ | +++ | +++ (rates of change of the absorbance and the fluorescence intensity are less than 5%, and thus, the storage stability is highly excellent) | 451 | 530 | 79
12 | N#C/C(=C\c1ccc2c(c1)C1CCCC1N2c1ccc(C=C(c2ccccc2)c2ccccc2)cc1)C(=O)O (stereo not drawn) [Dye 108] | – | +++ | +++ | +++ (rates of change of the absorbance and the fluorescence intensity are less than 5%, and thus, the storage stability is highly excellent) | 479 | 600 | 121
13 | CCN1c2ccc(/C=C3/SC(=S)N(CC(=O)O)C3=O)cc2C2CCCC21 (stereo not drawn) [Dye 109] | liver and gastrointestinal tract | +++ | +++ | +++ (rates of change of the absorbance and the fluorescence intensity are less than 5%, and thus, the storage stability is highly excellent) | 440 | 600 | 160
14 | CCN1C(=O)/C(=c2/s/c(=C/c3ccc4c(c3)C3CCCC3N4CC)c(=O)n2CC(=O)O)SC1=S (stereo not drawn) [Dye 110] | blood vessel | +++ | +++ | +++ (rates of change of the absorbance and the fluorescence intensity are less than 5%, and thus, the storage stability is highly excellent) | 623 | 671 | 48
15 | CSc1cccc(N2c3ccc(/C=C4/SC(=S)N(CC(=O)O)C4=O)cc3C3CCCC32)c1 (stereo not drawn) [Dye 115] | blood vessel, gallbladder, and gastrointestinal | +++ | +++ | +++ (rates of change of the absorbance and the fluorescence intensity are less than 5%, and thus, the storage stability is highly excellent) | 520 | 640 | 120
16 | O=C(O)CN1C(=O)/C(=C\c2cc(Br)c3c(c2)C2CCCC2N3Cc2ccccc2)SC1=S (stereo not drawn) [Dye 116] | blood vessel, gallbladder, and gastrointestinal | ++ | +++ | +++ (rates of change of the absorbance and the fluorescence intensity are less than 5%, and thus, the storage stability is highly excellent) | 486 | 606 | 120
